Columns and labels:
[1] = molecular target: T1, human β3 adrenergic receptor (Homo sapiens, UniProt P13945); assay: cAMP (SPA) response in CHO cells transfected with human β3 adrenergic receptor; assay type: cell-based; design: key: fraction of maximal isoproterenol (10^-5 M) response; settings: maximal response relative to maximal response of isoproterenol at 10^-5 M
T1 construct: Full length β3 AR clones (402 amino acids) containing the last 6 amino acids of hβ3-AR are prepared; expressed in transfected cells; host or cells: CHO (Chinese hamster ovary) cells
How it was run: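 Reactions were stopped with 0.2N HCl and neutralised, and cAMP was measured by SPA. Activity is expressed as percent of the maximal 10^−5 M isoproterenol response.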

T1 sequence (P13945 whole entry): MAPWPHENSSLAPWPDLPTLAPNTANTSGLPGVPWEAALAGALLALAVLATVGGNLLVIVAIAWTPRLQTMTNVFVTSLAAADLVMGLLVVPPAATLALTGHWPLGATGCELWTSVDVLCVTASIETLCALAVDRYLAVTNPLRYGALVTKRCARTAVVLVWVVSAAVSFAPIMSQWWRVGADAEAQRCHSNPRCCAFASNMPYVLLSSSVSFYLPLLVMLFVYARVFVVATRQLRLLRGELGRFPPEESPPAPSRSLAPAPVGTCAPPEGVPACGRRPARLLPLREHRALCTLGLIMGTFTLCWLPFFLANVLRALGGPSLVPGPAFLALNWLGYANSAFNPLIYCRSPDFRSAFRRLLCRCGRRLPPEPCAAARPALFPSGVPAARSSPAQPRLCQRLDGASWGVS

## COC(=O)[C@H](CC(C)C)NC(=O)c1ccc(N2CCC(NCC(O)c3ccc(O)c(NS(C)(=O)=O)c3)CC2)cc1 (stereo partly drawn) [Example 209, (2S)-2-(4-{4-[2-Hydroxy-2-(4-hydroxy-3-methanesulfonylamino-phenyl)-ethylamino]-piperidin-1-yl}-benzoylamino)-4-methyl-pentanoic acid methyl ester]
[1]
  IA(β3): 1
other
  melting point: > 90 °C (dec.)

## CS(=O)(=O)Nc1cc([C@@H](O)CNC2CCN(c3ccc(/C=C/C(=O)O)cc3)CC2)ccc1O [Example 210, (2E)-3-(4-{4-[(2R)-2-Hydroxy-2-(4-hydroxy-3-methanesulfonylamino-phenyl)-ethylamino]-piperidin-1-yl}-phenyl)-acrylic acid]
[1]
  IA(β3): 1.36
other
  melting point: 220 °C

## CC(C)C[C@@H](CO)NC(=O)c1ccc(N2CCC(NC[C@H](O)c3ccc(O)c(NS(C)(=O)=O)c3)CC2)cc1 [Example 211, 4-{4-[((2R)-2-Hydroxy-2-{4-hydroxy-3-[(methylsulfonyl)amino]phenyl}ethyl)amino]-1-piperidinyl}-N-[(1S)-1-(hydroxymethyl)-3-methylbutyl]benzamide]
[1]
  IA(β3): 1
other
  melting point: 120 to 122 °C

## CS(=O)(=O)Nc1cc([C@@H](O)CNC2CCN(c3ccc(C(=O)N[C@H]4CCCCNC4=O)cc3)CC2)ccc1O [Example 212]
[1]
  IA(β3): 1.1
other
  melting point: 135 to 137 °C

## CCCCN(Cc1nnn[nH]1)C(=O)c1ccc(N2CCC(NC[C@H](O)c3ccc(O)c(NS(C)(=O)=O)c3)CC2)cc1 [Example 213, N-Butyl-4-{4-[((2R)-2-hydroxy-2-{4-hydroxy-3-[(methylsulfonyl)amino]phenyl}-ethyl)amino]-1-piperidinyl}-N-(1H-tetraazol-5-ylmethyl)benzamide]
[1]
  IA(β3): 0.97
other
  melting point: 168 to 170 °C

## CCCC(=O)Nc1ccc(N2CCC(NC[C@H](O)COc3cccc4[nH]c(=O)[nH]c34)CC2)cc1 [Example 386, N-{4-[4-({(2S)-2-Hydroxy-3-[(2-oxo-2,3-dihydro-1H-benzimidazol-4-yl)oxy]propyl}-amino)-1-piperidinyl]phenyl}butanamide]
[1]
  IA(β3): 0.89
other
  melting point: 190 to 201 °C

## CCCC(=O)Nc1ccc(N2CCC(NC[C@H](O)COc3cccc4[nH]c5ccccc5c34)CC2)cc1 [Example 387, N-[4-(4-{[(2S)-3-(9H-Carbazol-4-yloxy)-2-hydroxypropyl]amino}-1-piperidinyl)phenyl]butanamide]
[1]
  IA(β3): 0.56
other
  melting point: 194 to 199 °C

## COc1ccc(C(=O)Nc2ccc(N3CCC(NC[C@H](O)COc4ccc(O)cc4)CC3)cc2)cc1OC [Example 388, N-[4-(4-{[(2S)-2-Hydroxy-3-(4-hydroxyphenoxy)propyl]amino}-1-piperidinyl)phenyl]-3,4-dimethoxybenzamide]
[1]
  IA(β3): 0.75
other
  melting point: 77 to 84 °C

## COc1ccc(C(=O)Nc2ccc(N3CCC(NC[C@H](O)COc4cccc5[nH]c6ccccc6c45)CC3)cc2)cc1OC [Example 389, N-[4-(4-{[(2S)-3-(9H-Carbazol-4-yloxy)-2-hydroxypropyl]amino}-1-piperidinyl)phenyl]3,4-dimethoxybenzamide]
[1]
  IA(β3): 0.61
other
  melting point: 183 to 191 °C

## O=C(Nc1ccc(N2CCC(NC[C@H](O)COc3cccc4[nH]c(=O)[nH]c34)CC2)cc1)c1ccc2c(c1)OCO2 [Example 390, N-{4-[4-({(2S)-2-Hydroxy-3-[(2-oxo-2,3-dihydro-1H-benzimidazol-4-yl)oxy]propyl}-amino)-1-piperidinyl]phenyl}-1,3-benzodioxole-5-carboxamide]
[1]
  IA(β3): 0.82
other
  melting point: 160 to 169 °C

## O=C(Nc1ccc(N2CCC(NC[C@H](O)COc3cccc4[nH]c5ccccc5c34)CC2)cc1)c1ccc2c(c1)OCO2 [Example 391, N-[4-(4-{[(2S)-3-(9H-Carbazol-4-yloxy)-2-hydroxypropyl]amino}-1-piperidinyl)phenyl]-1,3-benzodioxole-5-carboxamide]
[1]
  IA(β3): 0.81
other
  melting point: 217 to 223 °C

Source: US7022716B2, “Cyclic amine phenyl beta-3 adrenergic receptor agonists” (Wyeth, priority 2000, dated 2006)
